{"source": "patent US20130149392A1", "about": "“METHOD OF TREATING NON-SMALL CELL LUNG CANCER WITH BIS-(THIOHYDRAZIDE)AMIDE COMPOUNDS” (SYNTA PHARMACEUTICALS CORP., priority 2011, published 2013)", "system": "Stage IIIB or Stage IV Non-Small Cell Lung Cancer (NSCLC)", "assay": "Phase 2 clinical trial of Compound (1) (STA-4783, elesclomol) with paclitaxel and carboplatin vs paclitaxel and carboplatin; PFS and OS by baseline LDH", "assay_type": "in vivo, human", "procedure": "A Phase 2 Clinical Trial of Compound (1), or STA-4783 (elesclomol) in combination with paclitaxel and carboplatin for the treatment of chemotherapy naive patients with Stage IIIB or Stage IV Non-Small Cell Lung Cancer (NSCLC) was performed. It was a multicenter, randomized, double-blinded, 2-arm study evaluating the recommended Phase 2 dose of STA-4783 (elesclomol) and paclitaxel and AUC=6 mg·min/mL carboplatin as compared with the recommended Phase 2 dose of paclitaxel and AUC=6 mg·min/mL carboplatin.\nBoth progression-free survival (PFS) and overall survival (OS) were improved in the low baseline LDH (≦0.8 ULN) population (where ULN is Upper Limit of Normal, which in at least one laboratory was 234 units/L, significant deviation from which was low).\nTable 1 presents PFS outcomes for ITT (Intent To Treat) population patients with high, normal and low baseline LDH levels. […] In patients with low baseline LDH levels, PFS was improved for treatment, with a median of 4.6 vs. 3.1 months (HR=0.88), where HR mean Hazard Ratio. In patients with normal baseline LDH, median PFS is similar for treatment and control arms (3.3 and 4.0 months, respectively), with a HR of 1.17. In patients with high baseline LDH, median PFS was 2.8 and 6.3 months for treatment and control arms, respectively (HR=[…])\nTable 2 presents a summary of the OS analyses for the ITT population with high, normal and low baseline LDH levels. In patients with low baseline LDH levels, OS was improved for treatment, with a median of 10.7 vs. 8.5 months (HR=0.74). In patients with normal baseline LDH, median OS is similar for treatment and control arms (8.4 and 8.4 months, respectively), with a HR of 0.91. In patients with high baseline LDH, median […] was 5 and 10 months for treatment and control arms, respectively (HR=1.64)", "key": {"[1]": {"details": "elevated LDH (>1 ULN) population"}, "[2]": {"details": "low baseline LDH (≦0.8 ULN) population"}}, "data": [{"smiles": "CN(NC(=O)CC(=O)NN(C)C(=S)c1ccccc1)C(=S)c1ccccc1", "note": "[Compound (1), elesclomol]", "values": [{"measurement": "overall survival (OS), result in words", "setting": "[1]", "result": "negative impact"}, {"measurement": "progression-free survival (PFS), result in words", "setting": "[1]", "result": "negative impact"}, {"measurement": "overall survival (OS), result in words", "setting": "[2]", "result": "improved"}, {"measurement": "progression-free survival (PFS), result in words", "setting": "[2]", "result": "improved"}]}]}
